Structures are written as SMILES. Converted amounts (≈) assume the structure as drawn. Where only a bound is given, the exact number is not on record here.

The test system of one data set is Human alphaherpesvirus 1. The data set can be described thus: Antiviral activity against HSV-1 infected in African green monkey Vero cells assessed as reduction in virus-induced cytopathic effect incubated for 3 days by MTT assay. The format is functional, organism-based. The following applies: Human alphaherpesvirus 1, Vero, 72 h.
The subject of a further data set is Human alphaherpesvirus 3. The data set can be described thus: Antiviral activity against VZV infected in African green monkey Vero cells assessed as reduction in virus-induced cytopathic effect incubated for 3 days by MTT assay. It is filed as functional, organism-based. Conditions: Human alphaherpesvirus 3, Vero, 72 h.
A further data set concerns Human betaherpesvirus 5. The data set can be described thus: Antiviral activity against […] infected in African green monkey Vero cells assessed as reduction in virus-induced cytopathic effect incubated for 3 days by MTT assay. It is filed as functional, organism-based. Conditions: Human betaherpesvirus 5, Vero, 72 h.
In another data set the test system is Human alphaherpesvirus 2. The data set can be described thus: Antiviral activity against HSV-2 infected in African green monkey Vero cells assessed as reduction in virus-induced cytopathic effect incubated for 3 days by MTT assay. Conditions: Human alphaherpesvirus 2, Vero, 72 h. The format is functional, organism-based.
In another data set the test system is Cryptococcus neoformans. The data set can be described thus: Antifungal activity against Cryptococcus neoformans CGMCC 2.3161. The format is functional.
In data set [1] the test system is Candida albicans. Briefly: Antifungal activity against Candida albicans SC5314. The format is functional.
Another data set concerns Aspergillus fumigatus. The data set can be described thus: Antifungal activity against Aspergillus fumigatus CGMCC 3.7795. The format is functional.
For another data set, the system named is Candida tropicalis. Briefly: Antifungal activity against Candida tropicalis CGMCC 2.3739. The format is functional.
The subject of a further data set is Nakaseomyces glabratus. The data set can be described thus: Antifungal activity against Candida glabrata. It is filed as functional.
The next data set concerns Candida parapsilosis. The data set can be described thus: Antifungal activity against Candida parapsilosis 22019. It is filed as functional. Conditions: Lodderomyces parapsilosis.
The test system of data set [2] is Candida albicans. The data set can be described thus: Antifungal activity against Candida albicans CPCC 400616. It is filed as functional.
A further data set has as its system Pichia kudriavzevii. The data set can be described thus: Antifungal activity against Candida krusei AS 2.1045. The format is functional.
For data set [3], the system named is Candida albicans. Briefly: Antifungal activity against azole-resistant Candida albicans clinical isolate 904 assessed as fungal growth inhibition incubated for 24 hrs by CLSI protocol based broth microdilution method. The format is functional.
Data set [4] is described as follows: Cytotoxicity against human MDA-MB-231 cells assessed as reduction in cell viability incubated for 96 hrs by MTT assay. It is filed as toxicity, cell-based.
A short description of data set [5]: Cytotoxicity against human A549 cells assessed as reduction in cell viability incubated for 96 hrs by MTT assay. It is filed as toxicity, cell-based.
Data set [6] can be described thus: Cytotoxicity against human SGC cells assessed as reduction in cell viability incubated for 96 hrs by MTT assay. It is filed as toxicity, cell-based.
The test system of data set [7] is Candida albicans. Briefly: Antifungal activity against azole-resistant Candida albicans clinical isolate CaR assessed as fungal growth inhibition incubated for 24 hrs by CLSI protocol based broth microdilution method. It is filed as functional.
Data set [8] relates to Candida albicans. The data set can be described thus: Antifungal activity against azole-resistant Candida albicans clinical isolate 901 assessed as fungal growth inhibition incubated for 24 hrs by CLSI protocol based broth microdilution method. It is filed as functional.
For data set [9], the system named is Candida albicans. Briefly: Antifungal activity against azole-resistant Candida albicans clinical isolate 632 assessed as fungal growth inhibition incubated for 24 hrs by CLSI protocol based broth microdilution method. The format is functional.
Data set [10] has as its system Candida albicans. Briefly: Antifungal activity against azole-resistant Candida albicans clinical isolate 17 assessed as fungal growth inhibition incubated for 24 hrs by CLSI protocol based broth microdilution method. It is filed as functional.
The target of another data set is Lactoperoxidase (Homo sapiens, UniProt P22079). Briefly: Inhibition of LPO (unknown origin)-mediated L-tyrosine nitration incubated for 20 mins in presence of H2O2 and sodium nitrite by RP-HPLC analysis.
The next data set has as its system PANC-1. The data set can be described thus: Cytotoxicity against human PANC-1 cells assessed as reduction in cell viability incubated for 48 hrs by MTT assay. It is filed as functional, cell-based. The following applies: PANC-1, 48 h.
A further data set deals with DU-145. The data set can be described thus: Cytotoxicity against human DU-145 cells incubated for 48 hrs. Conditions: DU-145, 48 h. The format is functional, cell-based.
A short description of data set [11]: Cytotoxicity against MEF cells assessed as reduction in cell viability incubated for 48 hrs by MTT assay. Conditions: mouse. The format is toxicity, cell-based.
A further data set relates to PC-3. Briefly: Cytotoxicity against human PC-3 cells incubated for 48 hrs. The format is functional, cell-based. Conditions: PC-3, 48 h.
In another data set the test system is MIA PaCa-2. The data set can be described thus: Cytotoxicity against human MIA PaCa-2 cells assessed as reduction in cell viability incubated for 48 hrs by MTT assay. The format is functional, cell-based. Conditions: MIA PaCa-2, 48 h.
Another data set deals with BXPC-3. The data set can be described thus: Cytotoxicity against human BXPC-3 cells assessed as reduction in cell viability incubated for 48 hrs by MTT assay. It is filed as functional, cell-based. The following applies: BXPC-3, 48 h.
Another data set has as its system LNCaP. Briefly: Cytotoxicity against human LNCaP cells incubated for 48 hrs. It is filed as functional, cell-based.
In the next data set the test system is MHCC97H. Briefly: Antiproliferative activity against human MHCC97H cells assessed as reduction in cell viability incubated for 48 hrs by MTT assay. The format is functional, cell-based.
Data set [12] can be described thus: Inhibition of TrxR (unknown origin) expressed in MHCC97H cells incubated for 24 hrs by colorimetric assay. It is filed as cell-based, Homo sapiens.
The subject of another data set is HCT-116. Briefly: Cytotoxicity against human HCT-116 cells measured after 72 hrs. It is filed as functional, cell-based. Conditions: HCT-116, 72 h.
The test system of data set [13] is A549. The data set can be described thus: Cytotoxicity against human A549 cells measured after 72 hrs. It is filed as functional, cell-based. Conditions: A549, 72 h.
The nature of data set [14]: Cytotoxicity against mouse L929 cells measured after 72 hrs. The format is toxicity, cell-based.
Data set [15] has as its system HeLa. Briefly: Cytotoxicity against human HeLa cells measured after 72 hrs. It is filed as functional, cell-based.
Data set [16] in a line: Cytotoxicity against mouse NIH3T3 cells measured after 72 hrs. The format is toxicity, cell-based.
A further data set has as its system HepG2. Briefly: Cytotoxicity against human HepG2 cells assessed as inhibition of cell growth incubated for 96 hrs by MTT assay. The format is functional, cell-based. Conditions: HepG2, 96 h.
A further data set concerns SMMC-7721. The data set can be described thus: Cytotoxicity against human SMMC-7721 cells assessed as inhibition of cell growth incubated for 96 hrs by MTT assay. The format is functional, cell-based. The following applies: SMMC-7721, 96 h.
The test system of data set [17] is A549. The data set can be described thus: Cytotoxicity against human A549 cells assessed as inhibition of cell growth incubated for 96 hrs by MTT assay. The format is functional, cell-based. The following applies: A549, 96 h.
The subject of data set [18] is HeLa. Briefly: Cytotoxicity against human HeLa cells assessed as inhibition of cell growth incubated for 96 hrs by MTT assay. It is filed as functional, cell-based.

Lactoperoxidase, sequence (P22079 whole entry): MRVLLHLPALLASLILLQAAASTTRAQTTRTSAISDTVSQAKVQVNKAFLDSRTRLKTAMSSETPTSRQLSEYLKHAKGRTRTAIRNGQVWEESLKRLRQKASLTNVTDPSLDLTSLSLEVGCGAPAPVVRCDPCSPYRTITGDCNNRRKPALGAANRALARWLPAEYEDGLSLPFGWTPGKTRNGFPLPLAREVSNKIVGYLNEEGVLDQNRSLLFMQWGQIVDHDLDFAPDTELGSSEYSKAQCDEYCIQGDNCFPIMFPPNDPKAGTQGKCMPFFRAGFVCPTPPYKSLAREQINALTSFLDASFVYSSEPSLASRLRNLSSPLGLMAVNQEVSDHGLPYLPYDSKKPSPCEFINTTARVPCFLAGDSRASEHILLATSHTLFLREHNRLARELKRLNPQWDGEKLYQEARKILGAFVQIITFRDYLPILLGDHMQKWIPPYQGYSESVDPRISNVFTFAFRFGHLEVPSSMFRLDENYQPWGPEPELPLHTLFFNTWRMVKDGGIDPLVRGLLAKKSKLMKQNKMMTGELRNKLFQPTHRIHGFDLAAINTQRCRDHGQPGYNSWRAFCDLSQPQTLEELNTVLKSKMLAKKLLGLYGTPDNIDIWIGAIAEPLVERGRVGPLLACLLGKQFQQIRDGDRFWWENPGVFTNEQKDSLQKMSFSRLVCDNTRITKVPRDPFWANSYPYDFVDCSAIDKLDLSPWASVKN

Regarding `NC1=Nc2c(ncn2C[Se]C(CO)CO)C(NC2CC2)N1` (stereo not given), the EC50 is more than 100000 nM with Human alphaherpesvirus 1, more than 100000 nM in the data set on Human alphaherpesvirus 3, 41100 nM in the data set on Human betaherpesvirus 5 and more than 100000 nM in the data set with Human alphaherpesvirus 2.
On to `Cc1cccc(C)c1[Se]C(Cn1ccnc1)c1ccc(Cl)cc1` (stereo not given), for which the minimal inhibitory concentration (MIC) against Cryptococcus neoformans stood at 0.13 µg/mL (≈ 0.334 µM); in the data set on Candida albicans [1], 0.03 µg/mL (≈ 0.077 µM); in the data set with Aspergillus fumigatus, 1 µg/mL (≈ 2.57 µM); against Candida tropicalis, 0.06 µg/mL (≈ 0.154 µM); against Nakaseomyces glabratus, 0.13 µg/mL (≈ 0.334 µM); with Candida parapsilosis, 0.03 µg/mL (≈ 0.077 µM). Besides, the MIC against Candida albicans [2] and against Pichia kudriavzevii was 0.03 µg/mL (≈ 0.077 µM) each time.
As for `Clc1ccc(-c2nn[se]c2-n2cncn2)c(Cl)c1`, the MIC was 32 µg/mL (≈ 92.7 µM) in the data set with Candida albicans [3]; 4 µg/mL (≈ 11.6 µM) with Candida albicans [7]; 8 µg/mL (≈ 23.2 µM) in the data set with Candida albicans [8]; 16 µg/mL (≈ 46.4 µM) in the data set with Candida albicans [9]; 4 µg/mL (≈ 11.6 µM) in the data set with Candida albicans [10]. Moreover, the IC50 at 96 h is 23.5 µg/mL (≈ 68.1 µM) in [4], 16.9 µg/mL (≈ 49.1 µM) in data set [5] and 19.5 µg/mL (≈ 56.5 µM) in data set [6].
Turning to `CNC1NC(N)=Nc2c1ncn2C[Se]C(CO)CO` (stereo not given), the EC50 in the data set on Human alphaherpesvirus 1 was more than 100000 nM; in the data set on Human alphaherpesvirus 3, more than 100000 nM; in the data set on Human betaherpesvirus 5, 32100 nM; in the data set on Human alphaherpesvirus 2 it was more than 100000 nM.
With `Cn1cc[nH]c1=S` [METHIMAZOLE], the half-inhibitory concentration (IC50) on Lactoperoxidase was determined as 510 nM.
As to `CC(=O)Oc1ccccc1C(=O)/N=C1\[Se]CCN1C(=O)c1ccccc1OC(C)=O`, the IC50 with PANC-1 was found to be 740 nM; in the data set with DU-145 it was 520 nM; with PC-3 it was 1700 nM; in the data set on MIA PaCa-2 it was 3030 nM; with BXPC-3, 2090 nM; with LNCaP, 2340 nM. The IC50 at 48 h in data set [11] is more than 50000 nM.
For `CN1CCC(COc2cnc(-c3cccc(Cn4nc(-c5cccc(C#N)c5)ccc4=O)c3)nc2)CC1` [TEPOTINIB], the half-inhibitory concentration (IC50) with MHCC97H was 16 nM; in data set [12], more than 10000 nM.
`CCC(C)n1ncn(-c2ccc(N3CCN(c4ccc(OCC5COC(Cn6cncn6)(c6ccc(Cl)cc6Cl)O5)cc4)CC3)cc2)c1=O` (stereo not given) [ITRACONAZOLE]: the minimum inhibitory concentration (MIC) was 0.5 µg/mL (≈ 0.709 µM) against Cryptococcus neoformans; more than 128 µg/mL in the data set with Candida albicans [3]; 0.03 µg/mL (≈ 0.0425 µM) against Candida albicans [1]; 2 µg/mL (≈ 2.83 µM) in the data set with Aspergillus fumigatus; 0.5 µg/mL (≈ 0.709 µM) against Candida tropicalis; 0.5 µg/mL (≈ 0.709 µM) against Nakaseomyces glabratus. Further, the minimum inhibitory concentration (MIC) in the data set with Candida albicans [7] is 8 µg/mL (≈ 11.3 µM); against Candida parapsilosis, 0.25 µg/mL (≈ 0.354 µM); in the data set with Candida albicans [2] it was 0.25 µg/mL (≈ 0.354 µM); with Candida albicans [8] it was more than 128 µg/mL; with Candida albicans [9] it was more than 128 µg/mL; with Pichia kudriavzevii, 0.06 µg/mL (≈ 0.085 µM). Further, the MIC with Candida albicans [10] was more than 128 µg/mL.
`CC[C@@]1(OC(=O)OCc2ccc(O/C=C/[Se]c3ccccc3)cc2)C(=O)OCc2c1cc1n(c2=O)Cc2cc3ccccc3nc2-1`: the IC50 was determined as 43 nM in the data set with HCT-116, 102 nM with A549 [13] and 308 nM with HeLa [15]. Besides, the IC50 at 72 h came out at 10200 nM in data set [14] and 1180 nM in data set [16].
With `Nc1ccn([C@@H]2O[C@H](CO)[C@@H](O)C2(F)F)c(=O)n1` [GEMCITABINE], the IC50 in the data set with HepG2 was determined as 2460 nM; in the data set with SMMC-7721 it was 460 nM; in the data set on A549 [17], 690 nM; in the data set with HeLa [18], 3900 nM.
Regarding `O=C(Nc1ccn([C@@H]2O[C@H](CO)[C@@H](O)C2(F)F)c(=O)n1)OC1C[Se][Se]C1`, the 50% inhibitory concentration (IC50) in the data set on HepG2 came to 470 nM; with SMMC-7721, 330 nM; with A549 [17], 110 nM; in the data set on HeLa [18], 880 nM.

(Values after ChEMBL document CHEMBL5512666, “Selenization of Small Molecule Drugs: A New Player on the Board” (J Med Chem, 2024).)
